Measured values published in publication PMC12089509, “NorA Efflux Pump Inhibitors: Expanding SAR Knowledge of Pyrazolo[4,3‐c][1,2]benzothiazine 5,5‐Dioxide Derivatives” (Archiv Der Pharmazie, 2025).
Converted amounts (≈) assume the structure as drawn. Like-named read-outs stand apart in the source and are kept apart here.

Columns and labels:
[1] = tested on: S. aureus SA-K2378 (norA ++); test: Checkerboard assay EPI/CPX against SA-K2378; type: cell-based, Staphylococcus aureus
Protocol: (§1) Conversely, interesting results were obtained against SA‐K2378, which overexpresses the norA gene (Table 2). […] This corroborates the hypothesis that their activity is strictly related to NorA EP inhibition.
(§2) Checkerboard assays were carried out using SA‐K1902 and SA‐K2378 strains according to standard procedures.

[2] = MTT cytotoxicity assay on MCF7; type: cell-based; conditions: human, MCF7 cells; for viability at 72 h, 12.5 µg/mL: MCF7, 12.5 μg/mL; for viability at 72 h, 12.5 µg/mL / viability at 72 h, 25 µg/mL / viability at 72 h, 50 µg/mL / viability at 72 h, 100 µg/mL: read-out: Cytotoxicity (% cell viability); for viability at 72 h, 25 µg/mL: MCF7, 25 μg/mL; for viability at 72 h, 50 µg/mL: MCF7, 50 μg/mL; for viability at 72 h, 100 µg/mL: MCF7, 100 μg/mL; for CC50 at 72 h: MCF7, MTT
Protocol: The MTT assay was performed on two human ATCC cell lines, that is, […] (CCL‐185) and MCF7 (HTB‐22), to test the potential cytotoxic effect of the compounds, after 72 h exposure, as previously described. Each compound was tested at concentrations ranging from 12.5 to 100 μg/mL. Untreated cells were considered as controls. The percentage of viable cells was calculated as follows: % Cell viability = 100 × treated well absorbance/untreated control well absorbance. All assays were performed once in technical quadruplicate.

[3] = tested on: S. aureus SA-K1902 (norA-); test: Checkerboard assay EPI/CPX against SA-K1902; type: cell-based, Staphylococcus aureus
Protocol: as §2

[4] = tested on: S. aureus SA-K2378 (norA ++); test: MIC evaluation against SA-K2378; type: cell-based, Staphylococcus aureus; conditions: Staphylococcus aureus
Text: as §1
(§3) In this study, the S. aureus strains SA‐1199B (overexpressing norA) and its isogenic parent SA‐1199 (wild type), the pair SA‐K1902 (norA‐depleted) and SA‐K2378 (complemented with a pCU1 plasmid harboring the norA promoting and coding region from SA‐1199B), were used to test EPI activity as described in a previous study. Furthermore, the S. aureus ATCC 29213 was used as the reference strain in MIC determination experiments.

[5] = tested on: Staphylococcus aureus SA-1199B; test: MIC determination (broth microdilution) against SA-1199B; type: cell-based; conditions: SA1199B
Text: as §3

[6] = tested on: Staphylococcus aureus SA-K2378 biofilm; type: cell-based; conditions: for Biofilm formation (%): CPX 1/4 X MIC + EPI 1,6 µg/ml; for reduction in biofilm formation: EPI at 1.6 µg/mL with CPX at ½ MIC, vs untreated control
Text: The formation of biofilms is a significant contributor to the development of AMR [1, 26, 27]. This is due to the fact that biofilms provide a protective environment for bacteria, thereby rendering them more resilient to the effects of common antibacterial agents. Over the years, several investigations have been conducted to study the role of EPs in the various stages of microbial biofilm formation. However, a definitive answer regarding the potential role of EPs in this microbial pathway remains elusive. While some studies have reported a negative effect of certain EPs on biofilm formation, others have highlighted the promising role of EPIs in limiting biofilm formation and enhancing the efficacy of antibiotics under biofilm conditions.
The biofilm production by SA‐K1902 and SA‐K2378 strains was analyzed in flat 96‐well microtiter plates as previously described, with some modifications. […] The microplates were incubated at 37°C for 24 h in static conditions. After incubation, the biofilms were washed three times with distilled water, dried at 60°C for 1 h, and stained with 0,1% crystal violet for 10 min. After staining, the crystal violet was removed and the wells were washed three times with water, dried at 37°C for 30 min, and the bound crystal violet was solubilized with 96% ethanol in shaking conditions. At the end of the destaining, the absorbance (570 nm) of the solutions in each well was measured using the FLUOstar Omega plate reader (BMG‐LABTECH, Germany) to quantify the biofilm produced in each condition compared with the control (biofilm produced by the strain without any compound/antibiotic). Biofilm assays were performed in triplicate for each condition.

[7] = tested on: Staphylococcus aureus SA-1199B; type: cell-based
Text: For purposes of comparison, compound 1 was included as a reference.

[8] = tested on: S. aureus SA-K1902 (norA-); test: MIC evaluation against SA-K1902; type: cell-based, Staphylococcus aureus; conditions: Staphylococcus aureus
Text: as §1, §3

Compound | CPX MIC ([1]; EPI at 0.2 µg/mL) | N° CPX MIC reduction ([1]; EPI at 0.2 µg/mL) | CPX MIC ([1]; EPI at 0.4 µg/mL) | N° CPX MIC reduction ([1]; EPI at 0.4 µg/mL) | CPX MIC ([1]; EPI at 0.8 µg/mL) | N° CPX MIC reduction ([1]; EPI at 0.8 µg/mL) | CPX MIC ([1]; EPI at 1.6 µg/mL) | N° CPX MIC reduction ([1]; EPI at 1.6 µg/mL) | CPX MIC ([1]; EPI at 3.13 µg/mL) | N° CPX MIC reduction ([1]; EPI at 3.13 µg/mL) | viability at 72 h, 12.5 µg/mL [2] | viability at 72 h, 25 µg/mL [2] | viability at 72 h, 50 µg/mL [2] | viability at 72 h, 100 µg/mL [2] | CC50 at 72 h [2] | CPX MIC ([3]; EPI at 0.2 µg/mL) | N° CPX MIC reduction ([3]; EPI at 0.2 µg/mL) | CPX MIC ([3]; EPI at 0.4 µg/mL) | N° CPX MIC reduction ([3]; EPI at 0.4 µg/mL) | CPX MIC ([3]; EPI at 0.8 µg/mL) | further results
CN1c2c(-c3ccc(Cl)cc3)n[nH]c2-c2ccccc2S1(=O)=O [Compound 10, 3‐(4‐Chlorophenyl)‐4‐methyl‐1,4‐dihydropyrazolo[4,3‐c][1,2]benzothiazine 5,5‐dioxide] | 0.6 µg/mL | 2 | 0.6 µg/mL | 2 | 0.3 µg/mL | 4 | 0.16 µg/mL | 8 | 0.08 µg/mL | 16 | 66 ± 5% | 26 ± 2% | 7 ± 1% | 6% | ~25 µg/mL (≈ 72.3 µM) | 0.08 µg/mL | 2 | 0.08 µg/mL | 2 | 0.08 µg/mL | N° CPX MIC reduction ([3]; EPI at 0.8 µg/mL): 2; CPX MIC ([3]; EPI at 1.6 µg/mL): 0.08 µg/mL; N° CPX MIC reduction ([3]; EPI at 1.6 µg/mL): 2; CPX MIC ([3]; EPI at 3.13 µg/mL): 0.08 µg/mL; N° CPX MIC reduction ([3]; EPI at 3.13 µg/mL): 2; MIC [4]: 12.5 µg/mL (≈ 36.1 µM); MIC [5]: > 50 µg/mL; Biofilm formation (%) [6]: untreated control‐like condition; reduction in biofilm formation [6]: 54%; N° fold CPX MIC reduction ([7]; EPI at 12.5 µg/mL): 4 fold; MIC [8]: 12.5 µg/mL (≈ 36.1 µM)
O=S1(=O)Nc2c(-c3ccc(Cl)cc3)nn(-c3ccccc3)c2-c2ccccc21 [Compound 3] | 0.6 µg/mL | 2 | 0.6 µg/mL | 2 | 0.3 µg/mL | 4 | 0.16 µg/mL | 8 | 0.16 µg/mL | 8 | 97 ± 10% | 84 ± 4% | 88 ± 4% | 66 ± 7% | > 100 µg/mL | 0.08 µg/mL | 2 | 0.08 µg/mL | 2 | 0.08 µg/mL | CPX MIC ([1]; EPI at 6.25 µg/mL): 0.08 µg/mL; N° CPX MIC reduction ([1]; EPI at 6.25 µg/mL): 16; N° CPX MIC reduction ([3]; EPI at 0.8 µg/mL): 2; CPX MIC ([3]; EPI at 1.6 µg/mL): 0.08 µg/mL; N° CPX MIC reduction ([3]; EPI at 1.6 µg/mL): 2; CPX MIC ([3]; EPI at 3.13 µg/mL): 0.08 µg/mL; N° CPX MIC reduction ([3]; EPI at 3.13 µg/mL): 2; CPX MIC ([3]; EPI at 6.25 µg/mL): 0.08 µg/mL; N° CPX MIC reduction ([3]; EPI at 6.25 µg/mL): 2; CPX MIC ([3]; EPI at 12.5 µg/mL): 0.08 µg/mL; N° CPX MIC reduction ([3]; EPI at 12.5 µg/mL): 2; MIC [4]: 25 µg/mL (≈ 61.3 µM); MIC [5]: 25 µg/mL (≈ 61.3 µM); Biofilm formation (%) [6]: positive synergistic effect; reduction in biofilm formation [6]: 83%; N° fold CPX MIC reduction ([7]; EPI at 3.12 µg/mL): 2 fold; MIC [8]: > 50 µg/mL
